Test results from US20250262214A1, “INTERMITTENT DOSING REGIMEN FOR AZENOSERTIB IN TREATING CANCER” (Zeno Management, Inc., priority 2022, published 2025).

Tested on: MDA-MB-468 triple negative breast cancer tumor model
Assay: MDA-MB-468 triple negative breast cancer tumor model, tumor growth inhibition
Format: in vivo
Conditions: niraparib single agent, 50 mg/kg
Protocol: In vivo exploration of dose and schedule of Azenosertib and PARPi (niraparib, talazoparib) including exploration of alternating dosing was evaluated.

NC(=O)c1cccc2cn(-c3ccc([C@@H]4CCCNC4)cc3)nc12 [niraparib, reference compound]
tumor growth inhibition (TGI): 47.7%
